Data reported in US20180228778A1, “COMPOSITIONS COMPRISING S1P RECEPTOR MODULATORS” (Akaal Pharma Pty Ltd, priority 2015, published 2018).

Key:
[1] = system: LPS challenged macrophages (RAW cells); assay: Inhibition of pro-inflammatory cytokines and factors in LPS challenged macrophages (RAW cells); assay type: cell-based; conditions: in-vitro, 1 to 5 μM
Experimental: The pro-inflammatory cytokines and factors are over expressed in inflammations, cancer and other indications. Lipopolysaccharide is well known to induce various pro-inflammatory factors in the monocytes (RAW cells) and the efficacy of compound on the LPS challenged cells was evaluated for the inhibition of tumor necrosis factor (TNFα), interleukins; IL1P, IL6, and factors such as inducible nitroxide synthase (iNOS), COX-2 and vascular endothelial growth factor (VEGF).

[2] = system: DNFB-induced delayed type hypersensitivity (DTH) in BALB/c mice; assay: Dinitroflurobenzene (DNFB)-induced delayed type hypersensitivity (DTH) in BALB/c mice; assay type: in vivo; conditions: oral, twice daily 3 mg/Kg
Excerpt: The formulation of representative compound of formula I have shown efficacy in a delayed-type hypersensitivity (DTH) reaction model. The DTH is an expression of cell-mediated immunity and plays a major role in the pathology and chronicity of many inflammatory disorders including inflammatory skin indications. One of the most characteristic DTH phenomena is contact hypersensitivity, which is characterized by swelling and increased tissue levels of cytokines. Contact hypersensitivity (CHS) is a T cell mediated immune reaction in response to cutaneous sensitization and challenge with reactive haptens those are capable of binding directly to soluble and cell associated proteins and recognized by T cells in the context of self-MHC products. The cells that recognize antigen-protein complex in the skin are the Langerhans cells (LCs). After topical application of an allergen, Langerhans cells (LCs), the major antigen-presenting cells (APCs) for the induction of immune responses in skin, show enhanced expression of surface MHC class II molecules, and start to emigrate from the skin to regional lymph nodes where specific lymphocyte activation is thought to occur. After a second contact with the haptens, T cells are first recruited into tissues and then activated by antigen-presenting cells to produce cytokines that mediate local inflammation. Myeloperoxidase (MPO) is an enzyme exclusively present in neutrophils granules, which is commonly used as an index of granulocyte infiltration.
The effect of AKP (a compound of formula (I)) as an oral treatment was evaluated in dinitroflurobenzene (DNFB)-induced delayed type hypersensitivity (DTH) in BALB/c mice. A total of 18 female BALB/c mice were randomly assigned to 2 groups, Group 1: DTH treated with the vehicle of AKP (N=9); Group 2: DTH treated with AKP-11 twice daily dose of 3 mg/Kg (N=9). […] Ear thickness was measured with a micrometer before challenge and 24 h after challenge. Ear weight was measured 24 h after challenge. […]

[3] = system: Phorbol ester mediated irritant contact dermatitis in Swiss albino mice; assay: Phorbol ester mediated irritant model of contact dermatitis; assay type: in vivo; conditions: for reduction of ear swelling (inflammation): alone or in combination (Figure 3)
Experimental: The local application of Phorbol ester stimulates protein Kinase C (PKC), COX, LOX activity, formation of free radicals including the synthesis of mediators that regulate the production of TNF-α. The whole process mediates inflammation and hyperplasia as observed in inflammatory skin diseases such as psoriasis, eczema and others.
The topical efficacy of AKP (a compound of formula (I)) was determined in the Phorbol ester mediated irritant model of contact dermatitis. The 24 animals (Swiss albino mice) were divided in four groups (G1-4) of 6 each; G1 (control and vehicle treated), G2 (PMA challenged and vehicle treated), G3 (PMA challenged and clobetasol treated) and G4 (PMA challenged and AKP treated). The topical application of AKP (3% formulation; or as a DMSO solution) shown significant inhibition of ear inflammation (>40%; p<0.05). […] The combination reduced ear swelling (inflammation) by 43% (p[…]0.001) as shown in Figure-3 (Topical efficacy of AKP, betamethasone or combination in mice model of Phorbol ester mediated irritant contact dermatitis).

[4] = system: mild to moderate psoriasis; assay: Phase I clinical study of topical use in healthy volunteers and psoriasis patients; assay type: in vivo, human; conditions: daily for 28 days
Experimental: In a clinical study healthy volunteers and psoriasis patients with mild to moderate psoriasis were treated daily for 28 days.
The local psoriasis severity index (LPSI) was measured and recorded significant efficacy (>40%; p=0.0016; Figure-4). FIG. 4 illustrates the clinical effect of AKP.

Structure (SMILES) | inhibition of pro-inflammatory cytokines and factors (TNFα, IL1P, IL6, iNOS, COX-2, VEGF) [1] | ear thickness ([2]; 24 h after DNFB challenge) | ear weight ([2]; 24 h after DNFB challenge) | tissue MPO activity (right ear) ([2]; at sacrifice) | count of lymphocytes in the blood ([3]; topical application) | inhibition of ear inflammation ([3]; topical, 3% formulation or DMSO solution, PMA challenged, p<0.05) [%] | reduction of ear swelling (inflammation) ([3]; topical) [%] | AKP in blood (systemic exposure) [4] | serious adverse events [4] | local psoriasis severity index (LPSI) efficacy ([4]; p=0.0016, Figure 4) [%]
CCCOc1ccc(-c2nc(-c3ccc4oc(C(N)(CO)CO)cc4c3)no2)cc1Cl [AKP] | markedly inhibited | significantly reduced | significantly reduced | significantly reduced | did not alter | > 40 | 30 | not evident in blood | no serious adverse event | > 40
C[C@H]1C[C@H]2[C@@H]3CCC4=CC(=O)C=C[C@]4(C)[C@@]3(F)[C@@H](O)C[C@]2(C)[C@@]1(O)C(=O)CO [betamethasone, reference compound] |  |  |  |  |  |  | 30 |  |  | 
